# Results as given in patent publication US12360121B2, “Assay for detection of an A2E-Saposin B complex” (Syracuse University, priority 2016, dated 2025).
# Target: T1, Saposin B (Homo sapiens, UniProt P07602)
# T1 sequence (P07602 195-273 limits assumed): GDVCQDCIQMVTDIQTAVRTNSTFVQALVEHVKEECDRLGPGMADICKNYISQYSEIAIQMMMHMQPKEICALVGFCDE
# Test: fluorescence spectroscopy showing binding of A2E by Saposin B
# Conditions: fluorescence spectroscopy graphs (FIG. 1A, FIG. 1B)
# Source text: FIG. 1A is a first fluorescence spectroscopy graph showing that Saposin B binds A2E;
# FIG. 1B is a second fluorescence spectroscopy graphs showing that Saposin B binds A2E;
compound,measurement,value
"CC(C=CC1=C(C)CCCC1(C)C)=CC=CC(C)=Cc1cc(C=CC=C(C)C=CC2=C(C)CCCC2(C)C)cc[n+]1CCO [A2E, N-retinylidene-N-retinylethanolamine]",binding of A2E by Saposin B,binds
